{"source": "paper PMC6717386", "about": "“Aspulvinone O, a natural inhibitor of GOT1 suppresses pancreatic ductal adenocarcinoma cells growth by interfering glutamine metabolism” (Cell Communication and Signaling : CCS, 2019)", "key": {"[1]": {"target": "T1, murine GOT1 (Mus musculus, UniProt P05201)", "T1 construct": "recombinant, C-terminal 6 His-tag", "T1 sequence (P05201 2-413)": "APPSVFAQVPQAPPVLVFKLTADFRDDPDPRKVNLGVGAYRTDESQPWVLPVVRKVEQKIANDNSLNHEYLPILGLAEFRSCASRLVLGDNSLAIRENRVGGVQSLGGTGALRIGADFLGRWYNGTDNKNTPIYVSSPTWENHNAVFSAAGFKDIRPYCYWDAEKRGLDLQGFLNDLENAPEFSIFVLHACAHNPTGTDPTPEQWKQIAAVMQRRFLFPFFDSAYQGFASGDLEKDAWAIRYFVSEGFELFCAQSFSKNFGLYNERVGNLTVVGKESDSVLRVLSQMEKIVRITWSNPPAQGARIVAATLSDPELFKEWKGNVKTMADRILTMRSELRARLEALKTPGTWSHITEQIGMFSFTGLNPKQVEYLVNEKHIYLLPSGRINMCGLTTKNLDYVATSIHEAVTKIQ", "experiment": "microscale thermophoresis with labelled recombinant GOT1; supported by purified enzyme inhibition", "assay_type": "binding"}, "[2]": {"target": "GOT1 (aspartate transaminase 1, glutamic-oxaloacetic transaminase 1) (Homo sapiens, UniProt P17174)", "sequence (P17174 2-413)": "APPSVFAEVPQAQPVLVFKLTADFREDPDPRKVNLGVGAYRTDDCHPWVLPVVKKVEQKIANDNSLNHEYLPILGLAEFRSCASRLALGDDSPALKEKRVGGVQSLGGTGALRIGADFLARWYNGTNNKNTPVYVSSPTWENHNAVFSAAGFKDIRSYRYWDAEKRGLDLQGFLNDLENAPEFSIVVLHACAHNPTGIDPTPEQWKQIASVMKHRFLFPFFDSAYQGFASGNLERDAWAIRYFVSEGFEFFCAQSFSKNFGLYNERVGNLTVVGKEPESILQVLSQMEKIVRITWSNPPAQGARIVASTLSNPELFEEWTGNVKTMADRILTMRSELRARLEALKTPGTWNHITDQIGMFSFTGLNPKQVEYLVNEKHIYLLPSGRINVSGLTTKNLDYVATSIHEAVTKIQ", "experiment": "microscale thermophoresis with labelled recombinant GOT1; supported by purified enzyme inhibition and kinetics, CETSA and DARTS", "assay_type": "binding"}}}
{"smiles": "CC(C)=CCc1cc(/C=C2\\OC(=O)C(c3cc(CC=C(C)C)c(O)cc3O)=C2O)ccc1O", "note": "[AO, 3-[2,4-Dihydroxy-5-(3-methyl-2-buten-1-yl)phenyl]-4-hydroxy-5-[[4-hydroxy-3-(3-methyl-2-buten-1-yl)phenyl]methylene]-2(5H)-furanone]", "values": [{"measurement": "Kd", "setting": "[1]", "result": "5.42 ± 1.36", "unit": "µM"}, {"measurement": "Kd", "setting": "[2]", "result": "3.32 ± 1.18", "unit": "µM"}]}
